Experimental findings from PubChem BioAssay (NCI) are described below.

SMILES strings stand for the structures.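 Step 1: Grow cells in 96-well plates. Step 2: Expose to compound for 48 hours at 5 concentrations. Step 3: Interpolate endpoints linearly; if unreached, use highest concentration. GI50 = concentration required for 50% inhibition of growth. TGI denotes the concentration required for complete inhibition of growth.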 A value given as a limit tells only on which side of the number the result lay.

Test systems include UACC-257 melanoma; NCI/ADR-RES ovarian; OVCAR-4 ovarian; NCI-H23 lung; SW-620 colon; SK-MEL-2 melanoma; OVCAR-8 ovarian; SK-MEL-5 melanoma; SF-268 CNS.
What all share (test): NCI-60 cell line screen, 48 h

For `O=[N+]([O-])c1ccc(N/N=C/CC(O)(C(F)(F)F)C(F)(F)F)c([N+](=O)[O-])c1`, the TGI in the experiment on UACC-257 melanoma was over 10 µM; with NCI/ADR-RES ovarian, over 10 µM; in the experiment with OVCAR-4 ovarian it was over 10 µM; in the experiment on NCI-H23 lung, over 10 µM; in the experiment with SW-620 colon it was over 10 µM; with SK-MEL-2 melanoma, 6.64 µM. Moreover, the TGI with OVCAR-8 ovarian, in the experiment on SK-MEL-5 melanoma and in the experiment on SF-268 CNS was over 10 µM throughout.
With `CCOC(=O)c1c(-c2ccc(Cl)cc2)c(C#N)c(=S)n(C2OC(COC(C)=O)C(OC(C)=O)C(OC(C)=O)C2OC(C)=O)c1-c1ccccc1` (stereo unspecified), the TGI in the experiment on UACC-257 melanoma, in the experiment on NCI/ADR-RES ovarian, with OVCAR-4 ovarian, in the experiment with NCI-H23 lung, with SW-620 colon and in the experiment on SK-MEL-2 melanoma was over 100 µM in each case. Further, the TGI with SK-MEL-5 melanoma and in the experiment with SF-268 CNS was over 100 µM in each case.
With `C=C1c2nc3ccccc3n2C=C(c2ccc(C)cc2)N1c1ccc(C)cc1`, the TGI was over 100 µM in the experiment on UACC-257 melanoma; over 78.9 µM with NCI/ADR-RES ovarian; over 100 µM in the experiment with OVCAR-4 ovarian; over 100 µM in the experiment on NCI-H23 lung; over 100 µM in the experiment with SW-620 colon; over 100 µM in the experiment with SK-MEL-2 melanoma. The figures for the TGI in the experiment on OVCAR-8 ovarian, in the experiment with SK-MEL-5 melanoma and with SF-268 CNS were over 100 µM, over 69.8 µM and over 100 µM, respectively.
In the case of `O=C(NC1CCCCC1)c1cc2ccccc2cc1O`, the TGI in the experiment with UACC-257 melanoma was over 100 µM; with NCI/ADR-RES ovarian, 54.7 µM; in the experiment with OVCAR-4 ovarian it was over 100 µM; in the experiment with SW-620 colon, over 100 µM; in the experiment on SK-MEL-2 melanoma, 44.7 µM; in the experiment on OVCAR-8 ovarian it was 67.9 µM. The figures for the TGI with SK-MEL-5 melanoma and with SF-268 CNS were 47.9 µM and over 100 µM, respectively.
In the case of `CN(CCO)CCCC1COc2ccccc2O1` (stereo unspecified), the TGI in the experiment with UACC-257 melanoma, in the experiment on NCI/ADR-RES ovarian, with OVCAR-4 ovarian, in the experiment on NCI-H23 lung, with SW-620 colon and with OVCAR-8 ovarian was over 100 µM each time. The TGI with SK-MEL-5 melanoma is over 100 µM; with SF-268 CNS it was 45.4 µM.
In the case of `CC(=O)c1ccccc1NCC(=O)Nn1cnc2ccc(S(=O)(=O)Nc3ccccc3C(C)=O)cc2c1=O`, the TGI in the experiment on UACC-257 melanoma, with NCI/ADR-RES ovarian, in the experiment with OVCAR-4 ovarian, with NCI-H23 lung, with SW-620 colon and in the experiment with SK-MEL-2 melanoma was over 100 µM each time. Also, the TGI with OVCAR-8 ovarian and with SF-268 CNS was over 100 µM throughout.
Regarding `O=c1cc(NNc2cccc(F)c2)[nH]c(=O)[nH]1`, the TGI in the experiment on UACC-257 melanoma is 34.8 µM; in the experiment on NCI/ADR-RES ovarian, over 100 µM; with OVCAR-4 ovarian, over 100 µM; in the experiment on NCI-H23 lung, over 100 µM; with SW-620 colon, 34.5 µM; with SK-MEL-2 melanoma it was over 100 µM. The TGI in the experiment on SK-MEL-5 melanoma and in the experiment with SF-268 CNS was over 100 µM in each case.
On to `O=c1[nH]c2ccccc2c(O)c1/C=N/C(=S)NCc1ccccc1`, for which the TGI in the experiment with UACC-257 melanoma, in the experiment on NCI/ADR-RES ovarian, in the experiment on NCI-H23 lung, with SW-620 colon, in the experiment with SK-MEL-2 melanoma and in the experiment on OVCAR-8 ovarian was over 100 µM in each case. Further, the TGI in the experiment on SK-MEL-5 melanoma was over 100 µM.
As for `Brc1ccc2c3c1[C@H]1O[C@H]1c1cccc(c1-3)[C@@H]1O[C@H]21`, the TGI in the experiment with UACC-257 melanoma is 34.2 µM; in the experiment with NCI/ADR-RES ovarian, 76.8 µM; in the experiment with OVCAR-4 ovarian it was 28.8 µM; in the experiment on NCI-H23 lung it was 38.7 µM; in the experiment with SK-MEL-2 melanoma, 41.6 µM; with OVCAR-8 ovarian, 37.7 µM. Moreover, the TGI in the experiment with SK-MEL-5 melanoma came out at 30.2 µM; in the experiment on SF-268 CNS it was 36.8 µM.
`CCCCCCCC(CC(=O)NC(CO)C(=O)NC(CO)CC(C)C)OC(=O)CC(CCCCCCC)OC(=O)CC(CCCCCCC)OC1OC(C)C(O)C(OC2OC(C)C(O)C(O)C2OC(C)=O)C1O` (stereo unspecified): the TGI with UACC-257 melanoma was determined as 13.5 µM; in the experiment with OVCAR-4 ovarian, 19.9 µM; in the experiment on NCI-H23 lung, 22 µM; in the experiment with SW-620 colon, 22.2 µM; in the experiment on OVCAR-8 ovarian, 22.4 µM; in the experiment with SK-MEL-5 melanoma, 21.7 µM. The TGI in the experiment with SF-268 CNS is 21.2 µM.
Regarding `NNc1nncc2[nH]cnc12`, the TGI in the experiment on UACC-257 melanoma, with NCI/ADR-RES ovarian, with NCI-H23 lung, with SW-620 colon, with SK-MEL-2 melanoma and in the experiment with OVCAR-8 ovarian was over 100 µM in each case. Also, the TGI in the experiment with SK-MEL-5 melanoma and in the experiment with SF-268 CNS was over 100 µM in each case.
As to `Nc1ccccc1.[C-]#[O+].[C-]#[O+].[C-]#[O+].[C-]#[O+].[C-]#[O+].[Cr]`, the GI50 with NCI/ADR-RES ovarian was 2.76 µM; in the experiment on OVCAR-4 ovarian, 6.7 µM; in the experiment on NCI-H23 lung, 3.67 µM; in the experiment with SW-620 colon, over 10 µM; in the experiment on SK-MEL-2 melanoma it was 3.91 µM; with OVCAR-8 ovarian it was 4.03 µM. Besides, the results for the GI50 in the experiment on SK-MEL-5 melanoma and in the experiment with SF-268 CNS were 1.53 µM and 6.56 µM, respectively. In addition, the TGI in the experiment with NCI/ADR-RES ovarian is 9.79 µM; with OVCAR-4 ovarian, over 10 µM; in the experiment on NCI-H23 lung it was over 10 µM; in the experiment on SW-620 colon, over 10 µM; in the experiment with SK-MEL-2 melanoma it was over 10 µM; in the experiment on OVCAR-8 ovarian it was over 10 µM. In addition, the TGI in the experiment on SK-MEL-5 melanoma was 3.34 µM; with SF-268 CNS it was over 10 µM.
On to `COc1ccc2c(c1)C/C(=C\c1cccc3ccccc13)C2=O`, for which the TGI with NCI/ADR-RES ovarian is over 100 µM; in the experiment with OVCAR-4 ovarian, over 100 µM; in the experiment on NCI-H23 lung, 24.2 µM; with SW-620 colon it was over 100 µM; with OVCAR-8 ovarian, over 100 µM; with SK-MEL-5 melanoma it was over 100 µM. For the same compound, the TGI in the experiment with SF-268 CNS was over 100 µM.
Consider `CCOC(=O)c1nc2ccccc2nc1Oc1ccc(C(=O)OC)cc1`, for which the TGI with UACC-257 melanoma, in the experiment on NCI/ADR-RES ovarian, in the experiment with OVCAR-4 ovarian, with SW-620 colon, in the experiment with SK-MEL-2 melanoma and in the experiment with OVCAR-8 ovarian was over 100 µM in each case. Further, the TGI in the experiment on SK-MEL-5 melanoma and in the experiment on SF-268 CNS was over 100 µM in each case.
Turning to `CC1(C)C(CCO)CC1n1cc(I)c(=O)[nH]c1=O` (stereo unspecified), the TGI in the experiment on UACC-257 melanoma, in the experiment on NCI/ADR-RES ovarian, in the experiment with OVCAR-4 ovarian, in the experiment with SW-620 colon, in the experiment with SK-MEL-2 melanoma and in the experiment with SK-MEL-5 melanoma was over 100 µM throughout. The same compound yielded a TGI in the experiment with SF-268 CNS of over 100 µM.
With `CCN(CC)C(=S)Nc1ccc(-c2cc3ccc(O)cc3oc2=O)cc1`, the TGI is 48.4 µM in the experiment on UACC-257 melanoma; 81.9 µM in the experiment on NCI/ADR-RES ovarian; over 100 µM in the experiment with NCI-H23 lung; over 100 µM in the experiment with SW-620 colon; 49.3 µM with SK-MEL-2 melanoma; over 100 µM with OVCAR-8 ovarian. For the same compound, the TGI in the experiment with SK-MEL-5 melanoma was 48.8 µM; in the experiment on SF-268 CNS, over 100 µM.
As for `CCOP(=O)(OCC)C(c1ccccc1)N(C(=O)NC(F)(F)F)c1cccc(F)c1` (stereo unspecified), the TGI with UACC-257 melanoma, with NCI/ADR-RES ovarian, in the experiment with NCI-H23 lung, with SW-620 colon, with OVCAR-8 ovarian and in the experiment on SK-MEL-5 melanoma was over 100 µM throughout. In the experiment with SF-268 CNS, this compound yielded a TGI of over 100 µM.
As to `O=c1[nH]c(=O)n(C2CC(O)C(CO)O2)cc1NN=NCCCc1ccccc1` (stereo unspecified), the TGI with UACC-257 melanoma, in the experiment on NCI/ADR-RES ovarian, with OVCAR-4 ovarian, with NCI-H23 lung, in the experiment with SK-MEL-2 melanoma and in the experiment with OVCAR-8 ovarian was over 100 µM throughout. For the same compound, the TGI in the experiment with SK-MEL-5 melanoma and in the experiment with SF-268 CNS was over 100 µM in each case.
`COc1ccc(NC(=O)CC(=O)n2nc(C)c(N=Nc3cccc(C)c3)c2C)cc1`: the TGI in the experiment with NCI/ADR-RES ovarian, in the experiment on OVCAR-4 ovarian, in the experiment on NCI-H23 lung, with SW-620 colon, in the experiment on SK-MEL-2 melanoma and in the experiment on OVCAR-8 ovarian was over 100 µM throughout. The TGI in the experiment on SK-MEL-5 melanoma and in the experiment with SF-268 CNS was over 100 µM each time.
For `CN(C)c1ccc(C=C2C(=O)N(c3ccccc3)N(c3ccccc3)C2=O)cc1`, the TGI in the experiment on NCI-H23 lung, in the experiment with SW-620 colon, with SK-MEL-2 melanoma, with OVCAR-8 ovarian, in the experiment on SK-MEL-5 melanoma and in the experiment on SF-268 CNS was over 100 µM throughout.
As for `O=C(CCCCCCCCC(=O)N1C(=O)CC(=O)N(c2ccccc2)C1=S)N1C(=O)CC(=O)N(c2ccccc2)C1=S`, the TGI in the experiment on UACC-257 melanoma, in the experiment on NCI/ADR-RES ovarian, in the experiment on OVCAR-4 ovarian, with NCI-H23 lung, in the experiment on SK-MEL-2 melanoma and with OVCAR-8 ovarian was over 100 µM in each case. Besides, the TGI with SK-MEL-5 melanoma and with SF-268 CNS was over 100 µM in each case.
Turning to `COc1ccc(/C=C2\CCS(=O)(=O)c3ccccc3C2=O)cc1OC`, the TGI with UACC-257 melanoma is over 100 µM; with NCI/ADR-RES ovarian it was 81.6 µM; with OVCAR-4 ovarian it was 71.5 µM; in the experiment on NCI-H23 lung, over 100 µM; in the experiment with SW-620 colon, over 100 µM; in the experiment on SK-MEL-2 melanoma it was over 100 µM. In addition, the results for the TGI in the experiment with OVCAR-8 ovarian and in the experiment with SF-268 CNS were 43.5 µM and over 100 µM, respectively.
With `CSCCCS/C1=C/CCCCCCCCCC1`, the TGI with UACC-257 melanoma, in the experiment on NCI/ADR-RES ovarian, with OVCAR-4 ovarian, in the experiment on NCI-H23 lung, with SK-MEL-2 melanoma and in the experiment on SK-MEL-5 melanoma was over 100 µM in each case. The TGI with SF-268 CNS was over 100 µM.
